Tested on: cleavage of c-Met by γ-secretase
Test: Analysis of c-Met processing in c-Met-transfected 293/EBNA-1 cell strain (Western blotting with anti-HA antibody)
Assay type: cell-based, rat c-Met in HEK293 (293/EBNA-1) cells
Set-up: dose or concentration left out as unconfirmed
Conditions: Compound E added to culture broth, cultured another day, rat c-Met-HA transfected 293/EBNA-1 (HEK293) cells
Procedure: Whether or not c-Met is a substrate for γ-secretase was evaluated using HEK293 cells expressing a gene encoding c-Met with an HA tag added to its C-terminus, in the presence of a γ-secretase inhibitor. As the γ-secretase inhibitor, (2S)-2-{[(3,5-difluorophenyl)acetyl]amino}-N-[(3S)-1-methyl-2-oxo-5-phenyl-2,3-dihydro-1H-1,4-benzodiazepin-3-yl]propanamide (hereinafter, sometimes referred to as “Compound E”) (Alexis Biochemicals) was used.
293/EBNA-1 cell strain (Invitrogen) was cultured in 10% FBS (Hyclone)/DMEM (Invitrogen) under 5% CO2 at 37° C., followed by transfection thereinto of the gene encoding rat c-Met with an HA tag added to its C-terminus using Lipofectamine 2000 (Invitrogen). After one day culture under the same conditions, […] Compound E (Alexis Biochemicals) was added to the culture broth. Cells were cultured for another day under the same conditions. Then, the transfected HEK293 cells were collected with PBS (Sigma) and sonicated with a sonicator (Taitec VP-5S) to disrupt cells. Then, the quantity of protein was determined with Protein Assay Kit (BioRad). Samples (2 μl each) were taken from proteins obtained from Compound E-added cells and Compound E-not added cells, respectively, and subjected to SDS-PAGE, followed by Western blotting with an anti-HA antibody (Roche) (final concentration: 0.2 μg/ml). […]

## C[C@H](NC(=O)Cc1cc(F)cc(F)c1)C(=O)N[C@H]1N=C(c2ccccc2)c2ccccc2N(C)C1=O [Compound E, (2S)-2-{[(3,5-difluorophenyl)acetyl]amino}-N-[(3S)-1-methyl-2-oxo-5-phenyl-2,3-dihydro-1H-1,4-benzodiazepin-3-yl]propanamide]
  c-Met undegraded product (CTF band around 50 kDa) on Western blot: a band around 50 kDa (CTF: C terminal fragment) was accumulated specifically as a c-Met undegraded product

Reference: patent publication US20090191580A1, “METHOD OF SCREENING USING c-MET, A NOVEL SUBSTRATE FOR GAMMA-SECRETASE” (Eisai R & D Management Co., Ltd., priority 2007, published 2009)
